The source of these data is patent US20250319162A1, “METHODS AND MATERIALS FOR TREATING OBESITY” (Regents of the University of California, priority 2024, published 2025).

A short description of assay [1]: RalA inhibitor treatment of mice: body weight, tissue weight, blood glucose. The assay is classed as in vivo. An excerpt: To test the effects of RalA inhibition in reducing body weight, tissue weight and blood glucose level in mice, mice were weighed before injecting with either RalA inhibitor, BQU57, or DMSO (vehicle). Post injection, mice were weighed every 2 days.

Assay [2] relates to immortalized adipocytes. The experiment in a line: In vitro lipolysis (FFA and glycerol release) in immortalized adipocytes. The assay is classed as cell-based, mice. Here is the method:
Primary preadipocytes from Rala^f/f mice were immortalized by retroviral transduction of pBabe-zeo-LT-ST (SV40) and selection by Zeocin^75. Single-cell clones were selected and tested for differentiation capacity. […] To generate Rala KO cells, immortalized Rala^f/f (WT) preadipocytes were transduced with lentiviral Cre with 8 μg/mL Polybrene for 12 hours, then cultured in DMEM/F12-FBS medium. Cre recombinase efficiency was tested in preadipocytes and adipocytes. Once 95-100% confluency was reached (day 0), differentiation was induced as described above. On the day of the experiment, cells were starved in DMEM/F12 medium for 3 hours before treatments.
Fully differentiated primary adipocytes in a 24-well plate were serum-starved in lipolysis medium (2% BSA-phenol-red-free DMEM) for 3 hours. For insulin treatment, 100 nM insulin was added to cells for 30 minutes starting at 2.5 hours of starvation. After starvation, the medium was replaced with 0.5 mL fresh lipolysis medium with vehicle, 1 μM CL-316,243 (CL), 100 nM insulin or in combination. The medium was collected 1 hour after incubation at 37° C. Released FFAs and free glycerol levels were measured using 100 μL medium with a NEFA kit (WAKO) and Free Glycerol Reagent (Sigma) according to the manufacturer's protocol.

In assay [3] the test system is primary and immortalized adipocytes. In words: TMRM live-cell imaging of mitochondrial membrane potential in adipocytes. The format is cell-based, mice. The note with it: adipocytes treated with 1 μM CL-316,243 for indicated times. From the text: FIGS. 10A-10J. […] FIG. 10A: Calculation of individual OCR in differentiated primary adipocytes (n=8 biological samples). P=0.0008, P=0.0175, P=0.0042. FIG. 10B: Representative immunoblot of RalA and β-Tubulin in immortalized preadipocytes and differentiated adipocytes. (n=3 biological samples). FIG. 10C: Quantification of mean TMRM fluorescence intensity in primary adipocytes and immortalized adipocytes (n=3 independent cells). P<0.0001, P<0.0001. FIG. 10D: Time course TMRM intensity quantification in primary and immortalized adipocytes (n=4 biological samples). Adipocytes were treated with 1 μM CL-316,243 (CL) for indicated times. P=0.0015, P=0.0044 (left panel). P<0.0001, P=0.0154, P=0.0095 (right panel). FIGS. 10E and 10F: Quantification of NEFA (FIG. 10E) and free glycerol (FIG. 10F) released into medium from immortalized adipocytes (n=3 biological samples). Cells were treated with 1 μM CL, 100 nM insulin, or in combination prior to medium collection. P=0.0301, P=0.0051 (FIG. 10F). FIGS. 10G and 10H: Plasma levels of NEFA (FIG. 10G) and free glycerol (FIG. 10H) in CD-fed Rala^f/f and Rala^AKO mice (n=6). P=0.0027, P=0.0173 (FIG. 10H). Mice were i.p. injected with CL or vehicle prior to blood sampling. FIGS. 10I and 10J: Plasma levels of NEFA (FIG. 10I) and free glycerol (FIG. 10J) in CD-fed Rala^f/f (n=4) and Rala^AKO (n=5) mice. […]

Assay [4] deals with primary differentiated adipocytes. The experiment in a line: Seahorse oxygen consumption rate in differentiated primary adipocytes. The format is cell-based, mice. As to conditions: addition of etomoxir. As to the method:
The cellular oxygen consumption rate (OCR) was measured using an eXF96 Extracellular Flux Analyzer and analyzed by Agilent Seahorse Wave Software (Seahorse Bioscience). Before performing the assay, 2,500 primary preadipocytes were seeded and differentiated in XF96 microplates. Once fully differentiated, the adipocyte culture medium was changed to assay medium containing 25 mM glucose, 1 mM pyruvate and 2 mM L-glutamine, and 0.5 mM carnitine without phenol red or sodium bicarbonate for 3 hours. Before taking measurements, cells were incubated in a CO2-free incubator for 15 minutes. Basal rates of respiration were measured in assay medium and followed with sequential injections of oligomycin (2 μM), FCCP (0.5 μM) and rotenone with antimycin A (each 0.5 μM). Oxygen consumption values were normalized to total protein content.

The nature of assay [5]: In vivo insulin-suppressed lipolysis. As to conditions: single injection of insulin, fasted CD-fed control and Rala AKO mice. As to the method: CD-fed mice were used for in vivo lipolysis. For CL-induced lipolysis, ad libitum-fed mice were i.p. injected with PBS or CL (1 mg/kg) for 60 minutes. Circulating FFAs and free glycerol levels were measured using 2 μL plasma with a NEFA kit (WAKO) and Free Glycerol Reagent (Sigma), respectively. For insulin-suppressed lipolysis, overnight-fasted mice were i.p. injected with insulin (0.5 U/kg) for 60 minutes. Circulating FFAs and free glycerol levels were measured at the indicated conditions.

Entries after “also recorded” stand apart in the source; their conditions may differ.

With `Cc1nn(C)c2c1C(c1ccc(C(F)(F)F)cc1)C(C#N)=C(N)O2` (centres unmarked) [BQU57], the body weight result in assay [1] (mice injected with BQU57 vs DMSO vehicle, weighed every 2 days, 23 days of treatment) is “significant weight loss; also recorded: reduced body weight”. Moreover, the blood glucose level entry in assay [1] (mice, BQU57 vs vehicle group) is “significant reduction in the blood glucose level”. For the same compound, in assay [1] (mice, post treatment with BQU57), the “subcutaneous WAT (sWAT) weight” value is listed as “marked reduction of subcutaneous WAT (sWAT) weight”.

Regarding `C[C@H](Cc1ccc2c(c1)OC(C(=O)[O-])(C(=O)[O-])O2)NC[C@H](O)c1cccc(Cl)c1.[Na+].[Na+]` [CL-316,243], in assay [2] (1 μM CL, KO and WT immortalized adipocytes), the “FFA and glycerol release” value was “robustly stimulated FFA and glycerol release”. For the same compound, the “TMRM signal (mitochondrial membrane potential)” value in assay [3] was “TMRM signal declined quickly”.

Consider `CCOC(=O)[C@@]1(CCCCCCOc2ccc(Cl)cc2)CO1` [etomoxir], for which, in assay [4], the “difference in maximal respiration (OCR) between KO and control adipocytes” value was “blunted”.

Take “insulin: insulin used at 100 nM in cells or injected i.p. (human insulin, Sigma)”: the “plasma FFA levels” value in assay [5] is “reduced FFA levels”. Moreover, the “suppression of CL-induced FFA release” value in assay [2] (100 nM insulin with 1 μM CL, both WT and KO cells) is on record as “approximately 50%”.
